{
  "source": "patent US12054762B2",
  "about": "“Methods of protein production using anti-senescence compounds” (WYETH LLC, priority 2007, dated 2024)",
  "key": {"[1]": {"conditions": "addition of the chemical agent to cell culture; cited from earlier work"}, "[2]": {"test_system": "human diploid fibroblasts and human fetal lung (primary cell lines)", "conditions": "20 mM in culture media; cited from earlier work"}, "[3]": {"test_system": "Chinese Hamster Ovary (CHO) Cell Line Producing Recombinant TNFR Fusion Protein", "experiment": "Carnosine in 1 L bioreactor culture of cells producing recombinant TNFR fusion protein", "type": "cell-based", "conditions": "20 mM carnosine added day 2", "method": "A TNFR fusion protein cell line was cultured in a serum free production medium in a bioreactor with a 1 L working volume. On day 1, the temperature was shifted from 37° C. to 29.5° C., sodium butyrate was added to a final concentration of 1 mM, and HMBA was added to a final concentration of 3 mM. The pH of the bioreactor was held at 6.95 and the dissolved oxygen was at 60% air saturation. On day 2, carnosine was added to the culture to a final concentration of 20 mM. The cells were supplemented with a 5% (v/v) feed medium on days 3, 6, 8, and 10. The cell culture medium was harvested on day 12. Four separate control bioreactors were run in which CHO cells expressing a recombinant TNFR fusion protein were grown under conditions identical to those described above, except that carnosine was not added on day 2. The control data in FIGS. 4-11 is the average of the four control bioreactor runs."}, "[4]": {"test_system": "human or rodent transformed and neoplastic cells", "conditions": "cited from earlier work"}, "MYO-29 cell line [5]": {"test_system": "MYO-29 cell line", "experiment": "Dish scale carnosine experiments, MYO-29 cell line culture", "type": "cell-based", "conditions": "10 mM carnosine added to dishes on day 4, 7 or 10; harvested day 12; vs no carnosine", "method": "A MYO-29 cell line was cultured in a serum free production medium in a bioreactor with a 1 L working volume and was temperature shifted from 37° C. to 31° C. on day 4. The pH of the bioreactor was held at 7.00 and the dissolved oxygen was at 30% air saturation. Cell culture medium was then taken from the bioreactor on day 4, day 7, and day 10 and put into culture dishes with an 8 ml working volume and placed into a 31° C. incubator, where the dish cultures were cultured until day 12. The cells were supplemented with a feed medium on days 5 and 7. On day 5, 10% (v/v) of feed medium was added to the cell cultures and on day 7, 5% (v/v) of feed medium was added to the cell cultures. 10 mM of carnosine was added on day 4, day 7, and day 10, respectively, to the dishes and the cell culture medium was harvested on day 12."}, "MYO-29 cell line [6]": {"test_system": "MYO-29 cell line", "experiment": "Different concentrations of carnosine in 1 L bioreactor culture, MYO-29 cell line", "type": "cell-based", "method": "Four bioreactors were inoculated with 0.4×10^6 cells/ml with a 1 L working volume of a MYO-29 cell line in a serum free inoculation medium. All the bioreactors were all fed 5% (v/v) of a feed medium on day 7 of the 14-day run. The conditions of the bioreactor were held at a temperature of 37° C., a pH of 7.00, and a dissolved oxygen level at 30% air saturation.\nAll cells were cultured for four days at which point the temperature was shifted in all of the bioreactors to 31° C. […] All bioreactors were harvested on day 12 of the production run. Samples were taken throughout the run to monitor the progress of the cell culture medium. The controls performed generally as expected, except one control had slightly lower daily viabilities than previously seen."}, "MYO-29 cell line [7]": {"test_system": "MYO-29 cell line", "experiment": "Carnosine addition to 1 L bioreactor fed-batch culture, MYO-29 cell line", "type": "cell-based", "conditions": "20 mM carnosine added day 4", "method": "Five bioreactors were inoculated with 0.9×10^6 cells/ml with a 1 L working volume of a MYO-29 cell line in a serum free inoculation medium. All the bioreactors were fed 5% (v/v) of a feed medium on days 3, 5, 7, and 12 of a 14-day run. A day 10 feed of 5% (v/v) of the feed medium was added to two of the control bioreactors and one containing carnosine. The conditions of the bioreactors were held at a temperature of 37° C., a pH of 7.00, and a dissolved oxygen level at 30% air saturation.\nThe bioreactors were harvested on day 14 of the production run. Samples were taken throughout the run to monitor the progress of the cell culture medium. The controls performed as expected."}, "[8]": {"conditions": "vs average of 4 control bioreactors"}},
  "note": "Where two headings read alike, the source gives them in different places.",
  "data": [
    {"smiles": "CCCC(=O)[O-].[Na+]", "note": "[sodium butyrate]", "values": [
      {"measurement": "cell growth and viable cell number", "setting": "[1]", "result": "cell growth ceases and the viable cell number decreases"}
    ]},
    {"smiles": "NCCC(=O)N[C@@H](Cc1cnc[nH]1)C(=O)O", "note": "[carnosine]", "values": [
      {"measurement": "lifespan of cells", "setting": "[2]", "result": "extend the lifespan"},
      {"measurement": "amount of misfolded and/or aggregated TNFR fusion protein", "setting": "[3]; hydrophobic interaction chromatography (HIC), vs controls", "result": "significantly reduced"},
      {"measurement": "amount of high molecular weight (HMW) aggregates", "setting": "[3]; size exclusion chromatography (SEC), vs controls", "result": "significantly reduced"},
      {"measurement": "cell growth (viable cell density)", "setting": "[3]; [8]", "result": "not significantly affected"},
      {"measurement": "cell viability", "setting": "[3]; [8]", "result": "not significantly affected"},
      {"measurement": "glycosylation of the produced TNFR fusion protein (total sialylation, sialylated N-linked oligosaccharides)", "setting": "[3]; vs controls", "result": "not significantly different"},
      {"measurement": "product titer", "setting": "[3]; vs controls", "result": "increased"},
      {"measurement": "specific cellular productivity", "setting": "[3]; vs controls", "result": "increased"},
      {"measurement": "cytotoxicity", "setting": "[4]; Dulbecco's Modified Eagle's Medium (DMEM), contains 1 mM pyruvate", "result": "not"},
      {"measurement": "cytotoxicity", "setting": "[4]; Minimal Essential Medium (MEM), lower glucose levels", "result": "cytotoxic"},
      {"measurement": "acidic peaks", "setting": "MYO-29 cell line [5]", "result": "decreasing"},
      {"measurement": "high molecular weight aggregates", "setting": "MYO-29 cell line [5]", "result": "decreasing"},
      {"measurement": "high molecular weight aggregates", "setting": "MYO-29 cell line [6]; 20 mM or 40 mM carnosine added day 4, compared to the controls", "result": "decrease"},
      {"measurement": "daily titer", "setting": "MYO-29 cell line [6]; 20 mM or 40 mM carnosine added day 4, compared with one of the controls", "result": "similar"},
      {"measurement": "daily cell viability upon being harvested", "setting": "MYO-29 cell line [6]; 20 mM or 40 mM carnosine added day 4, harvest day 12, compared to two control bioreactors", "result": "higher viability"},
      {"measurement": "daily viable cell density", "setting": "MYO-29 cell line [6]; 20 mM or 40 mM carnosine added day 4, vs controls", "result": "fairly similar with the exception of the bioreactor with 4 mM of carnosine"},
      {"measurement": "cumulative specific cellular productivity", "setting": "MYO-29 cell line [6]; 40 mM carnosine added day 4", "result": "higher"},
      {"measurement": "daily cell viability upon being harvested", "setting": "MYO-29 cell line [7]; harvest day 14, compared to bioreactors without carnosine", "result": "higher"},
      {"measurement": "titer at the time of harvest", "setting": "MYO-29 cell line [7]; harvest day 14, vs controls", "result": "higher titer"},
      {"measurement": "cumulative specific cellular productivity", "setting": "MYO-29 cell line [7]; vs controls", "result": "better"},
      {"measurement": "high molecular weight aggregates", "setting": "MYO-29 cell line [7]; vs controls", "result": "decrease"}
    ]}
  ]
}
